Experimental data taken from patent publication US12156860B2, “Disorders implicating PUFA oxidation” (BioJiva LLC, priority 2011, dated 2024).

Test system: NASH (MCD diet) rats
Test: NASH induced by methionine and choline deficient diet
Assay type: in vivo, Rattus norvegicus, Wistar
Details: daily over three months
Description: Fifty male heterozygous rats, 45-days-old, from the Rattus norvegicus species and Wistar lineage are kept in polypropylene cages, in groups of five animals, under a 12 h-clear/dark cycle and under controlled temperature conditions. The induction of NASH is carried out through a diet deficient in methionine and choline (MCD) according to known procedures (See Rogers A E, Newberne P M. Alcoholic and nutritional fatty liver and cirrhosis. Am J Pathol. 1973; 73:817-20). […] During the study period, the animals are weighed on a weekly basis and the drugs dose is readjusted as necessary. On the first day of the study, besides determining the animals' weight, their blood is collected through retro-orbital plexus puncture for biochemical analysis: alanine-aminotransferase (ALT) and aspartate-aminotransferase (AST) (colorimetric test, using the Labtest kit). One day after concluding the induction period and compound administration (90 days), animals are sacrificed by decapitation. Once more, each animal's blood is collected for biochemical analysis. Then, laparotomy with total hepatectomy and liver preparation are carried out for lipoperoxidation (LPO) and histological analysis. Liver tissue samples are analyzed using the thiobarbituric-acid reactant substance (TBARS) measurement according to known methods (See Lowry et al. Protein measurement with the folin phenol reagent. J Biol Chem. 1951; 193:265-75) and the results are expressed in nmol of malondialdehyde/mg of protein. Slides with liver fragments are also dyed with hematoxilin-eosine and picrosirius, in order to evaluate the fibrosis level, and with Perls to evaluate the presence of iron stores, having been examined by an only pathologist blinded to the animals' data. The minimum histological criterion for NASH diagnosis is the presence of hepatocellular ballooning-related steatosis, involving zone 3 and lobular inflammatory infiltrate. Mallory corpuscles and sinusoidal fibrosis, involving zone 3 might be present or not. The graduation of both necroinflammatory and fibrosis activity is carried out according to known classifications (See Brunt E M, Janney C G, Di Bisceglie A M, Neuschwander-Tetri B A, Bacon B R. Nonalcoholic steatohepatitis: a proposal for grading and staging the histological lesions. Am J Gastroenterol. 1999; 94:2467-74).

Structure (SMILES): [2H]C([2H])(/C=C\CCCCC)/C=C\CCCCCCCC(=O)O [D2-LA, 11,11-Dideutero-cis,cis-9,12-Octadecadienoic acid]
- amount of MDA in liver samples (TBARS): reduce the amount of MDA found in liver samples
- histological signs of NASH: reverse the histological signs of NASH
